This is an account of results in patent US9422303B2, “Formulations of water-insoluble chemical compounds and methods of using a formulation of compound FL118 for cancer therapy” (Health Research, Inc., priority 2010, dated 2016).

The subject of one data set is human tumor xenografts. The experiment in a line: Antitumor activity/toxicity in human tumor mouse models (general statements). Type of data set: in vivo. Conditions: example: SCID mice, primary colon 11124 and 14528, weekly×4 (FIG. 15). Here is the method:
(§1) Six to 12-week-old female athymic nude mice (nu/nu, body weight 20-25 g) were purchased from Charles River Laboratories International, Inc. (Wilmington, Mass.) or Harlan Sprague Dawley Inc. (Indianapolis, Ind.). Six to 12-week-old female SCID mice were purchased from Roswell Animal facility (DLAR). Mice were housed at 5 mice per cage with water and food ad libitum. All animal experiments are performed in accordance with our IACUC-approved animal protocol.
Human tumor xenografts were initially established by injecting s.c 1×10^6 cultured cancer cells. The xenografts were then passed several generations by transplanting 40-50 mg non-necrotic tumor tissues via a trocar from the passage tumors. […]
(§2) Two axes (mm) of a tumor (L, longest axis; W, shortest axis) were measured with a Vernier caliper. […]
(§3) Antitumor activity was assessed by maximum tumor growth inhibition (MTGI), which is the mean tumor weight difference between treated group (MTWTG) and untreated control group (MTWCG) at the same time. The calculated formula is “MTGI=(MTWTG−MTWCG)÷MTWCG×100%”. […] Tumor response was expressed as 1) partial tumor response (PR) when tumor weight was reduced at least 50% initial tumor size on Day 0 and 2) complete tumor response (CR) which was defined as inability to detect tumor via palpitation at the initial tumor-transplanted site. […]

Data set [1] can be described thus: Solubility testing in DMSO, ethanol, water.
Data set [2] deals with human FaDu head and neck tumor xenografts. Nature of the data set: Antitumor activity in nude mice bearing human FaDu head and neck tumor xenografts. The format is in vivo. To be noted: one-time i.p. injection at about MTD (FIG. 1). The protocol:
as §1
FL118 was first dissolved in DMSO at a concentration of 1 mg/ml, and further diluted in a fresh Tween-80/saline solution. The final work solution consists of FL118 (0.05 mg/ml), 75% saline (V/V), 20% Tween-80 (V/V) and 5% DMSO (V/V). […]
as §2, §3
(In general: In xenograft studies the graft and the host belong to different species.)

Data set [3] relates to human HCT-8 colon tumor xenografts. The experiment in a line: Antitumor activity in nude mice bearing human HCT-8 colon tumor xenografts. The format is in vivo. The protocol:
as §1
FL118 was first dissolved in DMSO at a concentration of 1 mg/ml, and further diluted in a fresh Tween-80/saline solution. The final work solution consists of FL118 (0.05 mg/ml), 75% saline (V/V), 20% Tween-80 (V/V) and 5% DMSO (V/V). Control solution (placebo or vehicle) is 75% saline, 20% Tween-80 and 5% DMSO without FL118. Other FDA-approved anticancer drugs used in this invention for a comparison were used clinical formulations from the corresponding manufactures.
(§4) Human tumor xenografts were initially established by injecting s.c 1×10^6 cultured cancer cells. The xenografts were then passed several generations by transplanting 40-50 mg non-necrotic tumor tissues via a trocar from the passage tumors. Human primary tumors were initially obtained from cancer patients at Roswell Park Cancer Institute and established in SCID mice. Human tumor xenografts used in this study include human head & neck squamous cell carcinoma FaDu, human primary head & neck tumor 17073, human ileocecal adenocarcinoma HCT-8, human colon cancer SW620 and human primary colon cancer 11124 and 14528. Treatment was initiated 7 days after tumor transplantation when the tumor reaches 200-250 mg, at which the treatment was designated as Day 0. All cancer cells used for tumor establishment were tested for mycoplasma free. The transplantable tumor has similar histological profile of cultured cells.
The following schedules were used: 1) i.p. daily×2: once a day for consecutive 2 days; 2) i.p. daily×3: once a day for consecutive 3 days; 3) daily×5: once a day for consecutive 5 days (i.p. or p.o.); 4) i.p.×3 (day 0, 2, 4): 3 times on day 0, 2, and 4; 5) i.p. 2 days/week×¾: 2 times a week for 3 or 4 consecutive weeks; 6) weekly×4: once a week for 4 consecutive weeks (i.p. or p.o.); 7) i.p. biweekly×4: once every two weeks for 8 weeks; 8) 2 days/week×4: give 2 times a week for 4 weeks; and 9) i.p.×1: one time drug i.p. injection on Day 0.
Two axes (mm) of a tumor (L, longest axis; W, shortest axis) were measured with a Vernier caliper. Tumor weight (mg) was estimated using a formula of “tumor weight=½ (L×W^2)”. Tumor measurement was taken daily for the first two weeks and/or during the FL118 treatment period (with the exception of weekend) and then three times a week for the following two weeks of post therapy and twice a week thereafter.
Antitumor activity was assessed by maximum tumor growth inhibition (MTGI), which is the mean tumor weight difference between treated group (MTWTG) and untreated control group (MTWCG) at the same time. The calculated formula is “MTGI=(MTWTG−MTWCG)÷MTWCG×100%”. The tumor doubling time (TDT) was defined as the mean time for the tumor reaching twice its initial weight from the time beginning the treatment (Day 0). Tumor response was expressed as 1) partial tumor response (PR) when tumor weight was reduced at least 50% initial tumor size on Day 0 and 2) complete tumor response (CR) which was defined as inability to detect tumor via palpitation at the initial tumor-transplanted site. […]

For data set [4], the system named is human 17073 primary head & neck xenografts. The experiment in a line: Antitumor activity and toxicity in SCID mice bearing human 17073 primary head & neck xenografts. Type of data set: in vivo. To be noted: at MTD.
Text: FIG. 2 Comparison of antitumor activity and toxicity (body weight loss) of FL118 with irinotecan in SCID mice bearing human 17073 primary head & neck xenografts: A and B. Antitumor activity and toxicity of FL118 and irinotecan against 17073 tumors. C, D and E. Individual 17073 tumor in response to FL118 and irinotecan. The treatment schedule was weekly×4 as indicated by arrows. The doses for FL118 and irinotecan were their MTD in the weekly×4 schedule.
as §4
Two axes (mm) of a tumor (L, longest axis; W, shortest axis) were measured with a Vernier caliper. Tumor weight (mg) was estimated using a formula of “tumor weight=½ (L×W^2)”. […]
as §3

The conditions of data set [5]: irinotecan, stated without source; cited from earlier work.

`CCC1(O)C(=O)OCc2c1cc1n(c2=O)Cc2cc3cc4c(cc3nc2-1)OCO4` (racemic) [FL113, 10H,12H-1,3-Dioxolo[4,5-g]pyrano[3′,4′:6,7]indolizino[1,2-b]quinoline-8,11(7H,10H)-dione, 7-ethyl-7-hydroxy-, (+-)]: in the data set on human tumor xenografts, the “antitumor activity, comparison of FL118, FL113 and irinotecan” value is listed as “better than irinotecan in most cases”. Further, the solubility in ethanol result in data set [1] is listed as “poorly dissolve in ethanol”.
For `CCc1c2c(nc3ccc(OC(=O)N4CCC(N5CCCCC5)CC4)cc13)-c1cc3c(c(=O)n1C2)COC(=O)[C@]3(O)CC` [Irinotecan, irinotecan], in data set [2], the “antitumor activity compared with FDA-approved drugs” value is reported as “second most effective compound”. In data set [3] (100 mg/kg, i.p. weekly × 4), this compound registered a CR of 0%, an MTGI of 94.1 ± 3.6%, a PR of 60% and a TDT of 32.7 ± 11.5 days. Also, the “antitumor activity compared with FDA-approved drugs” value in data set [3] (one-time i.p. injection at about MTD (FIG. 1)) was “second most effective compound”. Also, in data set [4] (weekly×4), the “body weight loss (toxicity)” value was “accumulated body weight loss” and the “tumor relapse after complete response” value was “rapid relapse”. Besides, the “mice with complete response” value in data set [4] (weekly×4, 5 mice per group) was 40%. Also, the MTD in data set [5] was 100 to 200 mg/kg.
